Changes are numbered by the printed parent chain. “And” between values parts separate entries of the source, which are not always exact repeats. Equal values may be shown once. Read-outs that look alike come from different tables or passages of the source.
Experiments:
hSAA1, mSAA1, and mSAA3 = assay: Cholesterol competition of retinol binding to SAAs; conditions: 10 μM cholesterol, saturating retinol, fluorescence quenching at 334 nm
Description: Figure 2. […] Plots are representative of five independent experiments. (C) Retinoic acid lacks intrinsic fluorescence, but can quench intrinsic protein fluorescence due to energy transfer from tryptophan residues ([Cogan et al., 1976]). All-trans-retinoic acid was titrated into mSAA3 and fluorescence quenching was monitored following excitation at 296 nm. The chemical structure of retinoic acid is shown. (D) All-trans-retinoic acid was titrated into hSAA1, mSAA1, mSAA3, hTfr, and ApoA1. Fluorescence emission was monitored at 334 nm with excitation at 296 nm as in (C). Plots are representative of three independent experiments. […] Additional ligand binding measurements are provided in Figure 2—figure supplements 1 and 2. DOI: http://dx.doi.org/10.7554/eLife.03206.007 Figure 2—figure supplement 1. […] DOI: http://dx.doi.org/10.7554/eLife.03206.008 [drawing 3] Figure 2—figure supplement 2. Additional ligand binding studies on human and mouse SAAs. […] Plots are representative of three independent experiments.
Steady state fluorescence was measured using a QuantaMaster 40 spectrofluorometer (Photon Technology International, Edison, NJ) and FelixGX software program. […] For retinoic acid and other retinoids, samples were excited at 296 nm and tryptophan quenching was monitored by emission at 334 nm. […]

[1] = target: T1, recombinant human SAA1 (hSAA1) (Homo sapiens, UniProt P0DJI8, D78N/H89R); assay: Fluorometric retinoid binding assay, hSAA1; conditions: for Kd: PBS, 0.5 μM protein
T1 construct: corresponding to human apo-SAA1α except for the presence of an N-terminal methionine; purchased PeproTech (Rocky Hill, NJ)
T1 sequence (P0DJI8 19-122 D78N/H89R): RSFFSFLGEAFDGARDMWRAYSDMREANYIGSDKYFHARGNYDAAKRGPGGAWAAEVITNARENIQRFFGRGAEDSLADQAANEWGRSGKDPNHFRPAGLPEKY
Experimental: (§1) Retinoic acid lacks intrinsic fluorescence but can quench inherent protein fluorescence due to energy transfer from tryptophan residues ([Cogan et al., 1976]). We therefore measured retinoic acid binding using a modified fluorescence assay that monitored quenching of protein fluorescence (Figure 2C).
(§2) Steady state fluorescence was measured using a QuantaMaster 40 spectrofluorometer (Photon Technology International, Edison, NJ) and FelixGX software program. […] For retinoic acid and other retinoids, samples were excited at 296 nm and tryptophan quenching was monitored by emission at 334 nm. Experiments on mSAA1 and mSAA3 were done in 25 mM Tris pH 8.0, 100 mM NaCl, and 4 mM decyl maltopyranoside (DM). Experiments with hSAA1, human ApoA1, and human transferrin were conducted in PBS. […] All assays were done using a protein concentration of 0.5 μM.

mouse SAA1 (mSAA1) = target: T2, mouse SAA1 (mSAA1) (Mus musculus, UniProt P05366); assay: Fluorometric retinoid binding assay, mSAA1; conditions: for binding (in words): tryptophan fluorescence quenching, excitation 296 nm, emission 334 nm
T2 construct: hexa-histidine tag followed by thrombin cleavage site (N, cleaved yes); made in house; host or cells: Escherichia coli BL21-CodonPlus (DE3)-RILP
T2 sequence (P05366 20-122): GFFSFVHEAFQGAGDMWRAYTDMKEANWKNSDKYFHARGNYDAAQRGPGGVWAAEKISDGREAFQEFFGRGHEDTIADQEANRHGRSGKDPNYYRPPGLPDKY
Experimental: as §1, §2

mouse SAA3 (mSAA3) = target: T3, mouse SAA3 (mSAA3) (Mus musculus, UniProt P04918); assay: Fluorometric retinoid binding assay, mSAA3
T3 construct: hexa-histidine tag followed by thrombin cleavage site (N, cleaved yes); made in house; host or cells: Escherichia coli BL21-CodonPlus (DE3)-RILP
T3 sequence (P04918 19-122): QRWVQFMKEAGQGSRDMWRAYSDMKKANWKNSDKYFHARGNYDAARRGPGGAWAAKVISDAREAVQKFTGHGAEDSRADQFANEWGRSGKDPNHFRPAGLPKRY
Experimental: as §1, §2

mSAA3-W71A = target: T4, mSAA3-W71A (Mus musculus, UniProt P04918, W71A); assay: Retinol binding assay, mSAA3-W71A mutant
T4 construct: hexa-histidine tag followed by thrombin cleavage site (N, cleaved yes); made in house; host or cells: Escherichia coli BL21-CodonPlus (DE3)-RILP
T4 sequence (P04918 19-122 W71A): T3 sequence (P04918 19-122) with W53A
Experimental: The mSAA3-W71A mutant was generated using the QuickChange II site-directed mutagenesis kit (Agilent Technologies, Santa Clara, CA).
as §2

[2] = system: SAA1 and 2 expression in HepG2 cells; assay: SAA expression in HepG2 cells by Q-PCR; format: cell-based, human
Description: (§3) Figure 1. SAA expression requires dietary vitamin A. (A) Mice were maintained on a normal (Vit. A+) diet or a vitamin A-deficient (Vit. A−) diet as in Figure 1—figure supplement 1. N = 3–5 mice per condition. (B) Ileal sections were stained with anti-SAA antibody (‘Materials and methods’) and anti-rabbit IgG-Cy3 (red), and counterstained with DAPI (blue). Scale bar = 50 µm. (C) Q-PCR determination of Saa expression levels in livers of mice on a normal or vitamin A-deficient diet. N = 5 mice/condition. (D) Liver sections were stained with anti-SAA antibody and anti-rabbit IgG-Cy3 (red), and counterstained with DAPI (blue). Scale bars = 50 µm. (E and F) Analysis of SAA expression in HepG2 cells. […] SAA expression was determined by Q-PCR. N = 3 independent experiments. Mean ± SEM is plotted. nd, not detected. *p < 0.05; **p < 0.01; ***p < 0.001. p values were determined by two-tailed Student's t test. DOI: http://dx.doi.org/10.7554/eLife.03206.004 Figure 1—figure supplement 1. […] Saa transcript abundance was determined by Q-PCR. […] Saa transcript abundance was determined by Q-PCR. […] Mean ± SEM is plotted. *p < 0.05, **p < 0.01. p values were determined by the Mann–Whitney test in (A) and two-tailed Student's t test in (B). […]

[3] = system: intestinal Saa1 and Saa2 expression; assay: Saa expression in small intestinal explants by Q-PCR; format: cell-based, mouse; conditions: 1 µM retinol in 0.1% DMSO, ileum explants, 6 hr
[4] = target: human retinol binding protein 4 (hRBP4) (Homo sapiens, UniProt P02753); assay: Fluorescence binding assay, hRBP4; conditions: fluorescence quenching assay as in Figure 2
[5] = system: liver Saa1 and Saa2 expression; assay: In vivo retinoic acid reconstitution, liver Saa expression by Q-PCR; design: species or system mouse; conditions: vitamin A-depleted mice, intraperitoneal, daily for three days
Description: as §3

[6] = target: the molecule itself; assay: crystal structure; selenomethionyl mSAA3, space group P6(2), two subunits in the asymmetric unit, SAD phasing, 2 Å; 75-80% MPD, 0.1 M sodium acetate pH 4.5, 20°C; quaternary structure by PDBePISA
[7] = tryptophan fluorescence quenching, excitation 296 nm, emission 334 nm
[8] = tryptophan fluorescence quenching, excitation 296 nm, emission 334 nm, 0.5 μM protein

CC(C)CCC[C@@H](C)[C@H]1CC[C@H]2[C@@H]3CC=C4C[C@@H](O)CC[C@]4(C)[C@H]3CC[C@]12C [cholesterol]
competitive inhibition of retinol binding (hSAA1, mSAA1, and mSAA3): unable to competitively inhibit retinol binding

CC1=C(/C=C/C(C)=C/C=C/C(C)=C/C=C/C=C(C)/C=C/C=C(C)/C=C/C2=C(C)CCCC2(C)C)C(C)(C)CCC1 [β-carotene]
Kd [1, 7]: 347 nM and 497 nM
binding (in words) (mouse SAA1 (mSAA1)): weak binding
Kd (mouse SAA3 (mSAA3); [8]): 159 nM

CC1=C(/C=C/C(C)=C/C=C/C(C)=C/CO)C(C)(C)CCC1 [retinol]
Kd (mSAA3-W71A): 496 ± 127 nM
Kd ([1]; all-trans-retinol titration, retinol fluorescence, excitation 348 nm, emission 460 nm): 259 nM
expression of SAA1 and 2 ([2]; 1 μM retinol in the presence of IL-1β and IL-6, retinoid-free medium): enhanced expression
expression of intestinal Saa1 and Saa2 [3]: elevated expression
Kd (mouse SAA1 (mSAA1)): 169 nM
Kd (mouse SAA3 (mSAA3)): 145 nM

CC1=C(/C=C/C(C)=C/C=C/C(C)=C/C(=O)O)C(C)(C)CCC1 [retinoic acid]
Kd [1, 7]: 268 nM
expression of SAA1 and 2 ([2]; 100 nM retinoic acid in the presence of IL-1β and IL-6, retinoid-free medium): enhanced expression
Kd [4]: 139 ± 40 nM
expression of liver Saa1 and Saa2 [5]: elevated expression
binding (in words) (mouse SAA1 (mSAA1)): weak binding
Kd (mouse SAA3 (mSAA3); [8]): 224 nM

CC(=O)OC/C=C(C)/C=C/C=C(C)/C=C/C1=C(C)CCCC1(C)C [retinyl acetate]
Kd [1, 7]: 497 nM and 347 nM
binding (in words) (mouse SAA1 (mSAA1)): weak binding

CCCCCCCCCCCCCCCC(=O)OC/C=C(C)/C=C/C=C(C)/C=C/C1=C(C)CCCC1(C)C [retinyl palmitate]
binding (in words) [1, 7]: bound weakly
binding (in words) (mouse SAA1 (mSAA1)): bound weakly
binding (in words) (mouse SAA3 (mSAA3); [7]): bound weakly

B1: mouse serum amyloid A3 (mSAA3) (natural protein, UniProt P04918 19-122, looked up)
chain: T3 sequence (P04918 19-122)
notes: cloned into pET28(a)+ between NdeI and BamHI; monomer is 12.2 kDa; The crystal used for the structure was selenomethionyl-derivatised (grown in defined media with selenomethionine); SEC and cross-linking used the native protein; A few vector residues probably remain at the N-terminus after thrombin cleavage (surmise); also called mouse SAA3; not shown: His6, N-terminal, cleaved
stoichiometry N [6]: 4

From article PMC4129439 (eLife, 2014)
